Experiment: Pharmacokinetic study of compounds in mice, Example 25
Format: in vivo, male C57BL/6 mice
Conditions: Brain, Oral, 5 mg/kg
Method: Healthy male C57BL/6 mice (8-12 weeks old) weighing between 17 to 35 g were procured from Global, India. Temperature and humidity were maintained at 22±3° C. and 30-70%, respectively and illumination was controlled to give a sequence of 12 hr light and 12 hr dark cycle. Temperature and humidity were recorded by auto-controlled data logger system. All the animals were provided laboratory rodent diet. Reverse osmosis water treated with ultraviolet light was provided ad libitum.
Protocol A: Twenty-four male mice were divided into two groups as; Group 1: 30 mg/kg/IP; Plasma and brain; Number of animals=12; Animal #1-12. Group 2: 30 mg/kg/PO; Plasma and brain; Number of animals=12; Animal #13-24. […] All samples were processed for analysis by protein precipitation using acetonitrile and analyzed with fit-for-purpose LC/MS/MS method (LLOQ—2.02 ng/mL for plasma and 6.06 ng/g for brain). Pharmacokinetic parameters were calculated using the non-compartmental analysis tool of Phoenix WinNonlin®.
Protocol B: Thirty six mice were included into the study and divided in to three groups as Group 1 (n=12), Group 2 (n=12) and Group 3 (n=12) with n=2 mice per time-point design. […] Plasma and brain samples were quantified by fit-for-purpose LC-MS/MS method (LLOQ: 1.01 ng/mL for plasma and 2.02 ng/mL for brain). […]

O=C(c1cc(O)ccc1F)N1CC2(CC(n3cc(C(F)(F)F)c(-c4ccccc4F)n3)C2)C1 (single isomer, unassigned) [Compound 473, (2-fluoro-5-hydroxyphenyl){6-[3-(o-fluorophenyl)-4-(trifluoromethyl)-1-pyrazolyl]-2-aza-2-spiro[3.3]heptyl}methanone]
AUClast: 464.42 ng·h/mL

Source: patent publication US20250170101A1, “MONOACYLGLYCEROL LIPASE INHIBITORS AND USE THEREOF FOR THE TREATMENT AND MANAGEMENT OF PAIN AND RELATED CONDITIONS” (Psy Therapeutics, Inc., priority 2021, published 2025)
